The text below walks through data of patent US20260001914A1, “MACROCYCLIC PEPTIDES TARGETING KRAS” (Merck Sharp & Dohme LLC, priority 2022, published 2026).

Where a SMILES comes first, the peptide text is derived from it. Bridges are numbered along the chain shown (N, C = ends). [ ]: non-standard residue; d: D form. Trp(1-Me) = Cn1cc(C[C@H](N)C(=O)O)c2ccccc21; 1Nal = N[C@@H](Cc1cccc2ccccc12)C(=O)O; NMeF = CN[C@@H](Cc1ccccc1)C(=O)O; Ahp(2) = CCCCC[C@H](N)C(=O)O; hLys = NCCCCC[C@H](N)C(=O)O; Nle = CCCC[C@H](N)C(=O)O

As usually defined, the EC50 is the concentration needed to bring the measured effect to its halfway point. A higher EC50 goes with a need for much substance.

Chain of KRAS-G12D protein (P01116 1-188 isoform P01116-2 G12D): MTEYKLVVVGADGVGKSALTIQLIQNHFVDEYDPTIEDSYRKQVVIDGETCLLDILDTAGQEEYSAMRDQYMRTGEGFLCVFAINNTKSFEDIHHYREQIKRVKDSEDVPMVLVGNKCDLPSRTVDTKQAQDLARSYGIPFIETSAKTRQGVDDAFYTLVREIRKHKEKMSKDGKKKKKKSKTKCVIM

The test concerns the target KRAS-G12D protein (Homo sapiens, UniProt P01116, G12D). As to the kind of experiment: SOS-mediated nucleotide exchange assay (BODIPY-GDP / Tb-streptavidin TR-FRET). The test is classed as biochemical. (In general: Time-resolved FRET reads energy transfer from a long-lived donor to a nearby acceptor.)
`CCCCC[C@@H]1NC(=O)[C@H](Cc2ccc(O)cc2)NC(=O)[C@H](CC(C)C)NC(=O)[C@H](Cc2ccc(O)cc2)NC(=O)[C@H](CCCNC(=N)N)NC(=O)[C@H](Cc2ccccc2)NC(=O)CSC[C@H](C(N)=O)NC(=O)[C@H](Cc2ccccc2)N(C)C1=O` [compound 3, cyclo(F-R-Y-L-Y-Ahp-NMeF-dCl-ClAc)]: the half-maximal effective concentration (EC50) worked out at 0.966 µM.

As to `CCCCC[C@@H]1NC(=O)[C@H](Cc2ccc(O)cc2)NC(=O)[C@H](CC(C)C)NC(=O)[C@H](Cc2ccc(O)cc2)NC(=O)[C@@H](CCCNC(=N)N)NC(=O)[C@H](Cc2ccccc2)NC(=O)CSC[C@@H](C(N)=O)NC(=O)[C@H](Cc2ccccc2)N(C)C1=O` [compound 4, cyclo(F-dR-Y-L-Y-Ahp-NMeF-Cl-ClAc)], it took 3.28 µM to reach a half-maximal effect (EC50). The molecule `CCCCC[C@@H]1NC(=O)[C@H](Cc2ccc(O)cc2)NC(=O)[C@H](CC(C)C)NC(=O)[C@H](Cc2ccc(O)cc2)NC(=O)[C@H](CCCNC(=N)N)NC(=O)[C@H](Cc2cn(C)c3ccccc23)NC(=O)CSC[C@@H](C(N)=O)NC(=O)[C@H](Cc2ccccc2)N(C)C1=O` [compound 6, cyclo(TrplMe-R-Y-L-Y-Ahp-NMeF-Cl-ClAc)] ({CH2CO}-[Trp(1-Me)]RYLY[Ahp(2)][NMeF]C-NH2; thioether N-8) yielded an EC50 of 0.288 µM.

The molecule `CCCCC[C@@H]1NC(=O)[C@H](Cc2ccc(O)cc2)NC(=O)[C@H](CC(C)C)NC(=O)[C@H](Cc2ccc(O)cc2)NC(=O)[C@H](CCCNC(=N)N)NC(=O)[C@H](Cc2cccc3ccccc23)NC(=O)CSC[C@@H](C(N)=O)NC(=O)[C@H](Cc2ccccc2)N(C)C1=O` [compound 7, cyclo(INal-R-Y-L-Y-Ahp-NMeF-Cl-ClAc)] ({CH2CO}-[1Nal]RYLY[Ahp(2)][NMeF]C-NH2; thioether N-8) registered an EC50 of 1.63 µM. As to `CCCCC[C@@H]1NC(=O)[C@H](Cc2ccc(O)cc2)NC(=O)[C@H](CCCC)NC(=O)[C@H](Cc2ccc(O)cc2)NC(=O)[C@H](CCCNC(=N)N)NC(=O)[C@H](Cc2ccccc2)NC(=O)CSC[C@@H](C(N)=O)NC(=O)[C@H](Cc2ccccc2)N(C)C1=O` [compound 12, cyclo(F-R-Y-Nle-Y-Ahp-NMeF-Cl-ClAc)] ({CH2CO}-FRY[Nle]Y[Ahp(2)][NMeF]C-NH2; thioether N-8), the EC50 was 1.19 µM.

With `CC(C)C[C@@H]1NC(=O)[C@H](Cc2ccc(O)cc2)NC(=O)[C@H](CCCNC(=N)N)NC(=O)[C@H](Cc2ccccc2)NC(=O)CSC[C@@H](C(N)=O)NC(=O)[C@H](Cc2ccccc2)N(C)C(=O)[C@H](CCCCCN)NC(=O)[C@H](Cc2ccc(O)cc2)NC1=O` [compound 13, cyclo(F-R-Y-L-Y-hK-NMcF-Cl-ClAc)] ({CH2CO}-FRYLY[hLys][NMeF]C-NH2; thioether N-8), the concentration giving a half-maximal response (EC50) is 5.63 µM.

Regarding `CCC[C@@H]1NC(=O)[C@H](Cc2ccc(O)cc2)NC(=O)[C@H](CC(C)C)NC(=O)[C@H](Cc2ccc(O)cc2)NC(=O)[C@H](CCCNC(=N)N)NC(=O)[C@H](Cc2ccccc2)NC(=O)CSC[C@@H](C(N)=O)NC(=O)[C@H](Cc2ccccc2)N(C)C1=O` [compound 16, cyclo(F-R-Y-L-Y-Nva-NMeF-Cl-ClAc)], the EC50 worked out at 3.62 µM.

`CCCC[C@@H]1NC(=O)[C@H](Cc2ccc(O)cc2)NC(=O)[C@H](CC(C)C)NC(=O)[C@H](Cc2ccc(O)cc2)NC(=O)[C@H](CCCNC(=N)N)NC(=O)[C@H](Cc2cccc3ccccc23)NC(=O)CSC[C@H](C(N)=O)NC(=O)[C@H](Cc2ccccc2)N(C)C1=O` [compound 17, cyclo(INal-R-Y-L-Y-Nle-NMeF-dCl-ClAc)] ({CH2CO}-[1Nal]RYLY[Nle][NMeF][dC]-NH2; thioether N-8) gave a half-maximal effective concentration (EC50) of 1.05 µM. `CCCC[C@@H]1NC(=O)[C@H](Cc2ccc(O)cc2)NC(=O)[C@H](CC(C)C)NC(=O)[C@H](Cc2ccc(O)cc2)NC(=O)[C@H](CCCNC(=N)N)NC(=O)[C@H](Cc2ccccc2)NC(=O)CSC[C@H](C(N)=O)NC(=O)[C@H](Cc2ccccc2)N(C)C1=O` [compound 18, cyclo(F-R-Y-L-Y-Nle-NMeF-dCl-ClAc)] gave an EC50 of 0.825 µM.
